In one assay the target is T1, Exodeoxyribonuclease V (Escherichia coli (strain K12), UniProt P04993+P07648+P08394).
T1 sequence (P04993 whole entry): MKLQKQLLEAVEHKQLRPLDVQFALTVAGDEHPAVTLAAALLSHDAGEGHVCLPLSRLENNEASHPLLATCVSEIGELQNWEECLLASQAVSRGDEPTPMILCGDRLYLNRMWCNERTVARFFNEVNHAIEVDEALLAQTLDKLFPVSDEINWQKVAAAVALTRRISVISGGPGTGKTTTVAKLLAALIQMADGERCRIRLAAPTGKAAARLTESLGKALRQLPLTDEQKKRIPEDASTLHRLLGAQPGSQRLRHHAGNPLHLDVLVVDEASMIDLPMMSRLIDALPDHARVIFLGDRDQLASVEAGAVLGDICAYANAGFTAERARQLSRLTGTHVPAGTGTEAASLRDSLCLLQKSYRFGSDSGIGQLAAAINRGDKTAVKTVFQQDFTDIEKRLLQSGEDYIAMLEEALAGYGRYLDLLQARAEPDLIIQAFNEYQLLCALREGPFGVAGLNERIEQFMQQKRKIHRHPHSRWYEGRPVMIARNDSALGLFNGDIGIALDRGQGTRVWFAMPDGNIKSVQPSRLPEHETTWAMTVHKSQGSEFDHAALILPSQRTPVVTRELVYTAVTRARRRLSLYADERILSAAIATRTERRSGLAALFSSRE
T1 sequence (P07648 whole entry): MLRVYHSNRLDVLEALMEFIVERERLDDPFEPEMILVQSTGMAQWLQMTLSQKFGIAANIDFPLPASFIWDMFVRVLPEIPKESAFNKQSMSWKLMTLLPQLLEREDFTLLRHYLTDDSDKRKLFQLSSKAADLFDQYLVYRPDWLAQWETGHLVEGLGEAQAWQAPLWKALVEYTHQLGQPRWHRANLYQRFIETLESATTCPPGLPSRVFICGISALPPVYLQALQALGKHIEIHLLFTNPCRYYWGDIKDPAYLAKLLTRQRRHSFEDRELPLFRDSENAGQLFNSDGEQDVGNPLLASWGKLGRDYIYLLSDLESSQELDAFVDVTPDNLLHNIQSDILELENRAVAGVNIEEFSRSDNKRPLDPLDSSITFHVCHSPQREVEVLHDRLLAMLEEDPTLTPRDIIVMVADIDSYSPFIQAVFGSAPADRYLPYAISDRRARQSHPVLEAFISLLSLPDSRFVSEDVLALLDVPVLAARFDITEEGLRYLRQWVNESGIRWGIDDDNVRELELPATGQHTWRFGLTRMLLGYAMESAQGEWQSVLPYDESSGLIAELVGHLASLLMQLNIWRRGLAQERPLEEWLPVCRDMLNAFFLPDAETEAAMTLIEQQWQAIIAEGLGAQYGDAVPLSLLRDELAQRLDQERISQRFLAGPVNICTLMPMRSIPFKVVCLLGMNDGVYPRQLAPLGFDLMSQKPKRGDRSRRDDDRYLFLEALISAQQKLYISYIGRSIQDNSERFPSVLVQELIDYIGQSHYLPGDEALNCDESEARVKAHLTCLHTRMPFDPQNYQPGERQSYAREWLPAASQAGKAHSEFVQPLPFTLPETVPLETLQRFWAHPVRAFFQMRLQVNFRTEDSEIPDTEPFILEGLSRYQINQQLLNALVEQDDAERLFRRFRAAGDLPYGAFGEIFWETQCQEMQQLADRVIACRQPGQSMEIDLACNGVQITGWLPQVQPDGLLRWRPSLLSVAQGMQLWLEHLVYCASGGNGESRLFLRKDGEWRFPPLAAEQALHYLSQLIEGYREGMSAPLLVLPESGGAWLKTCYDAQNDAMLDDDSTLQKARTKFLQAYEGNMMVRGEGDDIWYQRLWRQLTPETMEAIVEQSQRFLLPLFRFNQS
T1 sequence (P08394 whole entry): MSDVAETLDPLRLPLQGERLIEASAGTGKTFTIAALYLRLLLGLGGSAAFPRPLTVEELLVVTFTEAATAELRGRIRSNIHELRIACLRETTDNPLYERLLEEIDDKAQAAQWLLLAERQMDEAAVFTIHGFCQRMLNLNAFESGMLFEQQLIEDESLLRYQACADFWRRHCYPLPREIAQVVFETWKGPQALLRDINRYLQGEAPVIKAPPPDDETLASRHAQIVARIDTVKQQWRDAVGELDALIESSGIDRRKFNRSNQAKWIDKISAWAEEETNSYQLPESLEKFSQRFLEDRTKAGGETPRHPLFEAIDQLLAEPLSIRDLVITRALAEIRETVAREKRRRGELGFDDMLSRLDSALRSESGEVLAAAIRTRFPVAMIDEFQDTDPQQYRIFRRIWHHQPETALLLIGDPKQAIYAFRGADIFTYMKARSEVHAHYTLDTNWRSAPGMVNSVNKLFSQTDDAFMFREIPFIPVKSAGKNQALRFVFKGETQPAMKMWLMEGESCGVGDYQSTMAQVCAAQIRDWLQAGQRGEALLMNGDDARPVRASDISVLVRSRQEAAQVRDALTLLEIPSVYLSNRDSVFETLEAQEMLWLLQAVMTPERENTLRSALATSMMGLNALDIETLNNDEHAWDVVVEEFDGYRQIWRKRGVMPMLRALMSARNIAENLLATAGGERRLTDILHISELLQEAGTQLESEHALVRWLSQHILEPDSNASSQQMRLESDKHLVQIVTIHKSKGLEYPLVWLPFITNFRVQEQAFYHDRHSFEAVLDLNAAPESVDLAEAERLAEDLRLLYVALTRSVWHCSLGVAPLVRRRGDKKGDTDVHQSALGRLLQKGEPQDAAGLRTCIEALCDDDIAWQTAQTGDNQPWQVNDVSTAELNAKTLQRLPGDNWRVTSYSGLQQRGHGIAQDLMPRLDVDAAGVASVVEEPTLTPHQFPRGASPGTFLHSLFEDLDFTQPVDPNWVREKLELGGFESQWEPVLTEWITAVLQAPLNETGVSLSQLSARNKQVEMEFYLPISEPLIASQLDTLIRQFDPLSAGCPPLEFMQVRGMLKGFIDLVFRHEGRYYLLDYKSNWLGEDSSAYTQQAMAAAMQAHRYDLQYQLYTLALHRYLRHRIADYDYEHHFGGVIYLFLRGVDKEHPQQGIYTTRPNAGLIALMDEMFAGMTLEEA
Nature of the assay: RecBCD inhibition via phage-restricted bacterial growth – absorbance, V66 E. coli, mutant T4 phage, counter-screen for AddAB inhibitor project, dose response (AID 492957). The class given is functional, cell-based, Escherichia coli str. K-12 substr. MG1655. On the technique in general: A counterscreen serves to expose hits that act by an unwanted route or on another target.

Assay [1] is described as follows: reduction of Shn3 3'UTR-driven luciferase in osteoblasts – cell-based, Clone20 osteoblasts, firefly luciferase, cherry-picked, dose response (AID 624132).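 Note: firefly luciferase luminescence from reporter carrying the Shn3 3'UTR in osteoblasts.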 Format: functional.
For assay [2], the target named is Insulin-like growth factor 1 receptor (Homo sapiens, UniProt P08069). Nature of the assay: Navigating the Kinome. Panel member name: IGF1R. Format: functional.
Assay [3] deals with Cyclin-dependent kinase 8 (Homo sapiens, UniProt P49336). As to the kind of experiment: Navigating the Kinome. Panel member name: CDK8. Format: functional.
Assay [4] has as its target Dual specificity mitogen-activated protein kinase kinase 2 (Homo sapiens, UniProt P36507). Nature of the assay: Navigating the Kinome. Panel member name: MAP2K2. The class given is functional.

The term IC50 denotes the concentration that inhibits the measured activity by half. In general, AC50 refers to the midpoint of the concentration-response curve, whichever way the signal moves. A word on the Ki: it is a measure of affinity in units of concentration, obtained from inhibition or displacement.

Active and inactive are the calls of the source.

Cyclin-dependent kinase 8, sequence (P49336 whole entry): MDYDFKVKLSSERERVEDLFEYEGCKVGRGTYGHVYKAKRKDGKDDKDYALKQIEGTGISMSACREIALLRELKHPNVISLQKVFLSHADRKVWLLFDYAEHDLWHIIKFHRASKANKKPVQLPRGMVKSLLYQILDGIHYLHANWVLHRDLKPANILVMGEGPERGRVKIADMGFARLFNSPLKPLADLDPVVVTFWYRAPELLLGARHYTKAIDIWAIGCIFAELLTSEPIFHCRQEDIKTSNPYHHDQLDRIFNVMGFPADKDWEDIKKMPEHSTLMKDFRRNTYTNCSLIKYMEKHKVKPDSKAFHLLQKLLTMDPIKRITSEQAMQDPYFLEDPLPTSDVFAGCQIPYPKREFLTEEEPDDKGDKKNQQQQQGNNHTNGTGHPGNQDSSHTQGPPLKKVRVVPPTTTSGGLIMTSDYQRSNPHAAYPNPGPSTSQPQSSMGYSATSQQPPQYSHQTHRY
Dual specificity mitogen-activated protein kinase kinase 2, sequence (P36507 whole entry): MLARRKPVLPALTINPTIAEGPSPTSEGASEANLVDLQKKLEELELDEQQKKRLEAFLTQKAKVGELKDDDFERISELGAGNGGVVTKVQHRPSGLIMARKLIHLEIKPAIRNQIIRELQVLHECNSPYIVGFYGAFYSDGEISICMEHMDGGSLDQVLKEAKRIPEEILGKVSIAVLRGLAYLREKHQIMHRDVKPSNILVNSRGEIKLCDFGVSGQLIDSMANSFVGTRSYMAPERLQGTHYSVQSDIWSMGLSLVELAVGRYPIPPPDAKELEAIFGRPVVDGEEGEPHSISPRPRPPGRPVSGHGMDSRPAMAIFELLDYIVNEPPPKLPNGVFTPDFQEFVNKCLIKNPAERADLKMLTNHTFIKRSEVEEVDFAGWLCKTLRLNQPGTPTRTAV
Insulin-like growth factor 1 receptor, sequence (P08069 31-736 limits assumed): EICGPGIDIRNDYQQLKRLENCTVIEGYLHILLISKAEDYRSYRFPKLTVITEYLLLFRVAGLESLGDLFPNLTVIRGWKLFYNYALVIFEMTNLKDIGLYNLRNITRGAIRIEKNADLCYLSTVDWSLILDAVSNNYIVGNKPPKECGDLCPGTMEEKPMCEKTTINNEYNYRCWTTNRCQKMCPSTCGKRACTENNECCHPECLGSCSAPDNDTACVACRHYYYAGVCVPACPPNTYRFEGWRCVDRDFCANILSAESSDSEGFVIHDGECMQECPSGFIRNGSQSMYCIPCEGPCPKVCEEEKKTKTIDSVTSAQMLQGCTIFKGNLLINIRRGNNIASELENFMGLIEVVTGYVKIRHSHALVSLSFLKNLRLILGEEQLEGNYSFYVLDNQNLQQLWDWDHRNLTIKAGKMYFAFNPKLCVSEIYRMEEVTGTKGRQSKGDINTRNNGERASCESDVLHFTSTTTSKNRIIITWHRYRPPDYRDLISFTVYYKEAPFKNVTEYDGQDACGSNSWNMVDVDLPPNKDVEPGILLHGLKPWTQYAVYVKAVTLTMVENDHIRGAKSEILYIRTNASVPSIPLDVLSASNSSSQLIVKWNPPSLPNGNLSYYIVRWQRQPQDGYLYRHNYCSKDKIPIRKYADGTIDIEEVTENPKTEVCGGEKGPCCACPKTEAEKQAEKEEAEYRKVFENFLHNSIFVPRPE
Insulin-like growth factor 1 receptor, sequence (P08069 741-1367 limits assumed): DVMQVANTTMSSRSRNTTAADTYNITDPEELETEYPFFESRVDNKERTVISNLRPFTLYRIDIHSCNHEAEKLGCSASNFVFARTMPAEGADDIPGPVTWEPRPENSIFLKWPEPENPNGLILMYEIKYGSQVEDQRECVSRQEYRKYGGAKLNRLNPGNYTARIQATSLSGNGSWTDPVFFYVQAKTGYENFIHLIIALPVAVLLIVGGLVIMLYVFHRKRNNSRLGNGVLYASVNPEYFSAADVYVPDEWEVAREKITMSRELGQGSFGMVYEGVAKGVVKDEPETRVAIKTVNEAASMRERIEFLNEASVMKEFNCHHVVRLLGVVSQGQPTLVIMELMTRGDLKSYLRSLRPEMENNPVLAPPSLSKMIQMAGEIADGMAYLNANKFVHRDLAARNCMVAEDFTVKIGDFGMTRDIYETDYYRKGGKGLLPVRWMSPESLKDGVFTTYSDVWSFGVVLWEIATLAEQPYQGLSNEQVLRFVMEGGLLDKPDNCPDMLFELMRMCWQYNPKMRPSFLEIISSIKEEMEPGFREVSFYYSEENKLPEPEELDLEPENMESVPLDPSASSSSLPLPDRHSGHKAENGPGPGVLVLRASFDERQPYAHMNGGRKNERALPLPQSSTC

Turning to `CCCC(=O)NC(c1ccc(N(C)C)cc1)c1ccc2cccnc2c1O` (stereo not given), at Exodeoxyribonuclease V, the IC50 is > 119000 nM (inactive). Moreover, in assay [1], the AC50 is 916 nM (active).
Regarding `O=C1NC(=O)C(c2c[nH]c3ccccc23)=C1c1nc(N2CCNCC2)nc2ccccc12`, the Ki in assay [2] was > 2510 nM (inactive); in assay [3], > 3980 nM (inactive); in assay [4], 1260 nM (active).

The values above are taken from ChEMBL document CHEMBL1201862, “PubChem BioAssay data set” (2004).
